Laboratory results as given in patent US20200354426A1 (MEDIMMUNE LIMITED, priority 2016, published 2020).
pEC50: −log10 of the molar value. Numbered stars: 1 amine (or outer) side, 2 acyl side, 3 side chain; on linkers, the order of the positions; unused ones are H or OH. Side chains are listed from the residue outwards. Peptide text beside a SMILES is read from it. * marks the point of attachment. γGlu = O=C(O)[C@H](CCC(=O)[*:2])N[*:1]; Palmitoyl = CCCCCCCCCCCCCCCC(=O)*; Ahx = NCCCCCC(=O)O; βAla = NCCC(=O)O

Key:
Assay in all cases: cAMP activity assay in assay medium (assay 1)
Assay type in all cases: cell-based
Human GLP1R = Human GLP1R (Homo sapiens, UniProt P43220); parameters: expressed in transfected cells; conditions: assay medium; Table 4; read-out: hGLP1R EC50
Chain of Human GLP1R (P43220 24-463): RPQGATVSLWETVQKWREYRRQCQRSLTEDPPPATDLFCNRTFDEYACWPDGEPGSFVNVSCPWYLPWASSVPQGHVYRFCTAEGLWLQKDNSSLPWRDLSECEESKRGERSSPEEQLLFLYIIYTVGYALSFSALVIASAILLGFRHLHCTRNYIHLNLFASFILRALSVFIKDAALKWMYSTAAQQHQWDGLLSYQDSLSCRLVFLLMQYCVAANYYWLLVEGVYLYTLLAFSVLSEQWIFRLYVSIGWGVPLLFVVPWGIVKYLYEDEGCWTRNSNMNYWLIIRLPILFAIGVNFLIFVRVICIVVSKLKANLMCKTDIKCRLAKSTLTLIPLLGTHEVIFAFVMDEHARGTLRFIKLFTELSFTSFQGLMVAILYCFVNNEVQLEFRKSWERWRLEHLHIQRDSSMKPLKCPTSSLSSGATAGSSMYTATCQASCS
Source text: (§1) Biological Activity of Peptides in Cell-Based cAMP Activity Assay (Assay 1):
(§2) All sample dilutions were made in duplicate.

Human GlucR = target: T1, Human GlucR (Homo sapiens, UniProt P47871); conditions: assay medium; Table 4; read-out: hGlucR EC50
T1 construct: expressed in transfected cells
T1 sequence (P47871 26-477): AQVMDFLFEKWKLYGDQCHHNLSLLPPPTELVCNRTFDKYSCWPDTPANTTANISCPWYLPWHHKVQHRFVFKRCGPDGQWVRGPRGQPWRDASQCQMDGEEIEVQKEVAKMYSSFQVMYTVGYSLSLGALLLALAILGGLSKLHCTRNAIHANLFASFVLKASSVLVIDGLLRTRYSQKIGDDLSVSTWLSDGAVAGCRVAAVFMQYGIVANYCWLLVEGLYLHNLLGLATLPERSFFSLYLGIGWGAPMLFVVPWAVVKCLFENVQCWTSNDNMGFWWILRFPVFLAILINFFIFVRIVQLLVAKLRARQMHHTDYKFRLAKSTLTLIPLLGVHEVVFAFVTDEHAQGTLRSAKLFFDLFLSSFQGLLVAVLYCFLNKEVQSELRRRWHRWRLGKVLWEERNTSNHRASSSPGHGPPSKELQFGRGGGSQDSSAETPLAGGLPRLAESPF
Source text: as §1, §2

Human GIPr = target: T2, Human GIPr (Homo sapiens, UniProt P48546); conditions: assay medium; Table 4; read-out: hGIPR EC50
T2 construct: expressed in transfected cells
T2 sequence (P48546 22-466): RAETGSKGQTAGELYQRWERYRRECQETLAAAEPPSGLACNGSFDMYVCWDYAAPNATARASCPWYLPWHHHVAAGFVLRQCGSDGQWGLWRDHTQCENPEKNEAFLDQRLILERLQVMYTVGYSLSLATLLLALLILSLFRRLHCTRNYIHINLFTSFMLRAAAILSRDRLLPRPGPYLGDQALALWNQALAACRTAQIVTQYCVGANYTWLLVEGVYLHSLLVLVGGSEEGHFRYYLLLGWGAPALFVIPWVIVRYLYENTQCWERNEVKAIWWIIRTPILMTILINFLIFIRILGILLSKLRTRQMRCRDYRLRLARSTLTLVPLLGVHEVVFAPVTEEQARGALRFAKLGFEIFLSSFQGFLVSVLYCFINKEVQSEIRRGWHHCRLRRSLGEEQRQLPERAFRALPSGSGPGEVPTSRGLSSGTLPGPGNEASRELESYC
Source text: as §1, §2

Work on `CCCCCCCCCCCCCCCC(=O)NCCC(=O)NCCCC[C@H](NC(=O)[C@H](CO)NC(=O)[C@H](CC(=O)O)NC(=O)[C@H](CC(C)C)NC(=O)[C@H](Cc1ccc(O)cc1)NC(=O)[C@H](CCC(=O)O)NC(=O)[C@H](CO)NC(=O)[C@H](Cc1ccc(O)cc1)NC(=O)[C@H](CC(=O)O)NC(=O)[C@H](CO)NC(=O)[C@@H](NC(=O)[C@H](Cc1ccccc1)NC(=O)[C@@H](NC(=O)CNC(=O)[C@H](CCC(N)=O)NC(=O)[C@H](CO)NC(=O)[C@@H](N)Cc1c[nH]cn1)[C@@H](C)O)[C@@H](C)O)C(=O)N[C@@H](CCCNC(=N)N)C(=O)N[C@@H](C)C(=O)N[C@@H](CCCNC(=N)N)C(=O)N[C@@H](CC(=O)O)C(=O)N[C@@H](Cc1ccccc1)C(=O)N[C@H](C(=O)N[C@@H](C)C(=O)N[C@@H](Cc1c[nH]c2ccccc12)C(=O)N[C@@H](CC(C)C)C(=O)N[C@@H](CCC(=O)O)C(=O)N[C@@H](C)C(=O)NCC(=O)NCC(N)=O)C(C)C` [g783] (H-HSQGTFTSDYSEYLDSK([βAla-Palmitoyl])RARDFVAWLEAGG-NH2; N-terminus assumed) yielded a pEC50 (Human GLP1R) of 10.37, a pEC50 (Human GlucR) of 10.04 and a pEC50 (Human GIPr) of 6.07.
`CCCCCCCCCCCCCCCC(=O)NCCCCCC(=O)NCCCC[C@H](NC(=O)[C@H](CO)NC(=O)[C@H](CC(=O)O)NC(=O)[C@H](CC(C)C)NC(=O)[C@H](Cc1ccc(O)cc1)NC(=O)[C@H](CCC(=O)O)NC(=O)[C@H](CO)NC(=O)[C@H](Cc1ccc(O)cc1)NC(=O)[C@H](CC(=O)O)NC(=O)[C@H](CO)NC(=O)[C@@H](NC(=O)[C@H](Cc1ccccc1)NC(=O)[C@@H](NC(=O)CNC(=O)[C@H](CCC(N)=O)NC(=O)[C@H](CO)NC(=O)[C@@H](N)Cc1c[nH]cn1)[C@@H](C)O)[C@@H](C)O)C(=O)N[C@@H](CCCNC(=N)N)C(=O)N[C@@H](C)C(=O)N[C@@H](CCCNC(=N)N)C(=O)N[C@@H](CC(=O)O)C(=O)N[C@@H](Cc1ccccc1)C(=O)N[C@H](C(=O)N[C@@H](C)C(=O)N[C@@H](Cc1c[nH]c2ccccc12)C(=O)N[C@@H](CC(C)C)C(=O)N[C@@H](CCC(=O)O)C(=O)N[C@@H](CCCNC(=N)N)C(=O)NCC(=O)NCC(N)=O)C(C)C` [g794] (H-HSQGTFTSDYSEYLDSK([Ahx-Palmitoyl])RARDFVAWLERGG-NH2; N-terminus assumed) gave a pEC50 (Human GLP1R) of 10.80, a pEC50 (Human GlucR) of 11.33 and a pEC50 (Human GIPr) of 7.49.
With `CCCCCCCCCCCCCCCC(=O)NCCC(=O)NCCCC[C@H](NC(=O)[C@H](CO)NC(=O)[C@H](CC(=O)O)NC(=O)[C@H](CC(C)C)NC(=O)[C@H](Cc1ccc(O)cc1)NC(=O)[C@H](CCC(=O)O)NC(=O)[C@H](CO)NC(=O)[C@H](Cc1ccc(O)cc1)NC(=O)[C@H](CC(=O)O)NC(=O)[C@H](CO)NC(=O)[C@@H](NC(=O)[C@H](Cc1ccccc1)NC(=O)[C@@H](NC(=O)CNC(=O)[C@H](CCC(N)=O)NC(=O)[C@H](CO)NC(=O)[C@@H](N)Cc1c[nH]cn1)[C@@H](C)O)[C@@H](C)O)C(=O)N[C@@H](CCCNC(=N)N)C(=O)N[C@@H](C)C(=O)N[C@@H](CCCNC(=N)N)C(=O)N[C@@H](CC(=O)O)C(=O)N[C@@H](Cc1ccccc1)C(=O)N[C@H](C(=O)N[C@@H](C)C(=O)N[C@@H](Cc1c[nH]c2ccccc12)C(=O)N[C@@H](CC(C)C)C(=O)N[C@@H](CCC(=O)O)C(=O)N[C@@H](CCCNC(=N)N)C(=O)NCC(=O)NCC(N)=O)C(C)C` [g795] (H-HSQGTFTSDYSEYLDSK([βAla-Palmitoyl])RARDFVAWLERGG-NH2; N-terminus assumed) the pEC50 (Human GLP1R) was 10.13, the pEC50 (Human GlucR) was 9.96 and the pEC50 (Human GIPr) was 6.24.
`CCCCCCCCCCCCCCCC(=O)N[C@@H](CCC(=O)NCCCC[C@H](NC(=O)[C@H](CCC(=O)O)NC(=O)[C@H](CO)NC(=O)[C@H](Cc1ccc(O)cc1)NC(=O)[C@H](CC(=O)O)NC(=O)[C@H](CO)NC(=O)[C@@H](NC(=O)[C@H](Cc1ccccc1)NC(=O)[C@@H](NC(=O)CNC(=O)[C@H](CCC(N)=O)NC(=O)[C@H](CO)NC(=O)[C@@H](N)Cc1c[nH]cn1)[C@@H](C)O)[C@@H](C)O)C(=O)N[C@@H](CC(C)C)C(=O)N[C@@H](CC(=O)O)C(=O)N[C@@H](CO)C(=O)N[C@@H](CCC(=O)O)C(=O)N[C@@H](CCCNC(=N)N)C(=O)N[C@@H](C)C(=O)N[C@@H](CCCNC(=N)N)C(=O)N[C@@H](CC(=O)O)C(=O)N[C@@H](Cc1ccccc1)C(=O)N[C@H](C(=O)N[C@@H](C)C(=O)N[C@@H](Cc1c[nH]c2ccccc12)C(=O)N[C@@H](CC(C)C)C(=O)N[C@H](C(=O)N[C@@H](C)C(=O)NCC(=O)NCC(N)=O)C(C)C)C(C)C)C(=O)O` [g802] (H-HSQGTFTSDYSEK([γGlu-Palmitoyl])LDSERARDFVAWLVAGG-NH2; N-terminus assumed) showed a pEC50 (Human GLP1R) of 10.02, a pEC50 (Human GlucR) of 8.74 and a pEC50 (Human GIPr) of 7.04.
In the case of `CCCCCCCCCCCCCCCC(=O)N[C@@H](CCC(=O)NCCCC[C@H](NC(=O)[C@H](Cc1ccc(O)cc1)NC(=O)[C@H](CCCCN)NC(=O)[C@H](CO)NC(=O)[C@H](Cc1ccc(O)cc1)NC(=O)[C@H](CC(=O)O)NC(=O)[C@H](CO)NC(=O)[C@@H](NC(=O)[C@H](Cc1ccccc1)NC(=O)[C@@H](NC(=O)CNC(=O)[C@H](CCC(N)=O)NC(=O)[C@H](CO)NC(=O)[C@@H](N)Cc1c[nH]cn1)[C@@H](C)O)[C@@H](C)O)C(=O)N[C@@H](CC(=O)O)C(=O)N[C@@H](CO)C(=O)N[C@@H](CCCNC(=N)N)C(=O)N[C@@H](CO)C(=O)N[C@@H](C)C(=O)N[C@@H](CCCNC(=N)N)C(=O)N[C@@H](CC(=O)O)C(=O)N[C@@H](Cc1ccccc1)C(=O)N[C@H](C(=O)N[C@@H](CCC(=O)O)C(=O)N[C@@H](Cc1c[nH]c2ccccc12)C(=O)N[C@@H](CC(C)C)C(=O)N[C@H](C(=O)N[C@@H](C)C(=O)NCC(=O)NCC(N)=O)C(C)C)C(C)C)C(=O)O` [g803] (H-HSQGTFTSDYSKYK([γGlu-Palmitoyl])DSRSARDFVEWLVAGG-NH2; N-terminus assumed), the pEC50 (Human GLP1R) was 10.53, the pEC50 (Human GlucR) was 10.97 and the pEC50 (Human GIPr) was 7.48.
Work on `CCCCCCCCCCCCCCCC(=O)N[C@@H](CCC(=O)NCCCC[C@H](NC(=O)[C@H](Cc1ccc(O)cc1)NC(=O)[C@H](CCCCN)NC(=O)[C@H](CO)NC(=O)[C@H](Cc1ccc(O)cc1)NC(=O)[C@H](CC(=O)O)NC(=O)[C@H](CO)NC(=O)[C@@H](NC(=O)[C@H](Cc1ccccc1)NC(=O)[C@@H](NC(=O)CNC(=O)[C@H](CCC(N)=O)NC(=O)[C@H](CO)NC(=O)[C@@H](N)Cc1c[nH]cn1)[C@@H](C)O)[C@@H](C)O)C(=O)N[C@@H](CC(=O)O)C(=O)N[C@@H](CO)C(=O)N[C@@H](CCCNC(=N)N)C(=O)N[C@@H](CCCNC(=N)N)C(=O)N[C@@H](C)C(=O)N[C@@H](CCCNC(=N)N)C(=O)N[C@@H](CC(=O)O)C(=O)N[C@@H](Cc1ccccc1)C(=O)N[C@H](C(=O)N[C@@H](CCC(=O)O)C(=O)N[C@@H](Cc1c[nH]c2ccccc12)C(=O)N[C@@H](CC(C)C)C(=O)N[C@@H](CCC(=O)O)C(=O)N[C@@H](C)C(=O)NCC(=O)NCC(N)=O)C(C)C)C(=O)O` [g805] (H-HSQGTFTSDYSKYK([γGlu-Palmitoyl])DSRRARDFVEWLEAGG-NH2; N-terminus assumed) yielded a pEC50 (Human GLP1R) of 10.64, a pEC50 (Human GlucR) of 11.84 and a pEC50 (Human GIPr) of 7.00.
For `CCCCCCCCCCCCCCCC(=O)NCCCCCC(=O)NCCCC[C@H](NC(=O)[C@H](CCC(N)=O)NC(=O)[C@H](C)NC(=O)[C@H](C)NC(=O)[C@H](CCCNC(=N)N)NC(=O)[C@H](CO)NC(=O)[C@H](CC(=O)O)NC(=O)[C@H](CC(C)C)NC(=O)[C@H](Cc1ccc(O)cc1)NC(=O)[C@H](CCCCN)NC(=O)[C@H](CO)NC(=O)[C@H](Cc1ccc(O)cc1)NC(=O)[C@H](CC(=O)O)NC(=O)[C@H](CO)NC(=O)[C@@H](NC(=O)[C@H](Cc1ccccc1)NC(=O)[C@@H](NC(=O)CNC(=O)[C@H](CCC(N)=O)NC(=O)[C@H](CO)NC(=O)[C@@H](N)Cc1c[nH]cn1)[C@@H](C)O)[C@@H](C)O)C(=O)N[C@@H](Cc1ccccc1)C(=O)N[C@H](C(=O)N[C@@H](CCC(N)=O)C(=O)N[C@@H](Cc1c[nH]c2ccccc12)C(=O)N[C@@H](CC(C)C)C(=O)N[C@@H](CCC(=O)O)C(=O)N[C@@H](CCCNC(=N)N)C(=O)NCC(=O)NCC(N)=O)C(C)C` [g806] (H-HSQGTFTSDYSKYLDSRAAQK([Ahx-Palmitoyl])FVQWLERGG-NH2; N-terminus assumed), the pEC50 (Human GLP1R) was 9.77, the pEC50 (Human GlucR) was 11.00 and the pEC50 (Human GIPr) was 6.98.
`CCCCCCCCCCCCCCCC(=O)N[C@@H](CCC(=O)NCCCC[C@H](NC(=O)[C@H](Cc1ccc(O)cc1)NC(=O)[C@H](CCCCN)NC(=O)[C@H](CO)NC(=O)[C@H](Cc1ccc(O)cc1)NC(=O)[C@H](CC(=O)O)NC(=O)[C@H](CO)NC(=O)[C@@H](NC(=O)[C@H](Cc1ccccc1)NC(=O)[C@@H](NC(=O)CNC(=O)[C@H](CCC(N)=O)NC(=O)[C@H](CO)NC(=O)[C@@H](N)Cc1c[nH]cn1)[C@@H](C)O)[C@@H](C)O)C(=O)N[C@@H](CC(=O)O)C(=O)N[C@@H](CO)C(=O)N[C@@H](CCC(=O)O)C(=O)N[C@@H](CCCNC(=N)N)C(=O)N[C@@H](C)C(=O)N[C@@H](CCC(N)=O)C(=O)N[C@@H](CC(=O)O)C(=O)N[C@@H](Cc1ccccc1)C(=O)N[C@H](C(=O)N[C@@H](CCC(N)=O)C(=O)N[C@@H](Cc1c[nH]c2ccccc12)C(=O)N[C@@H](CC(C)C)C(=O)N[C@@H](CCC(=O)O)C(=O)N[C@@H](C)C(=O)NCC(=O)NCC(N)=O)C(C)C)C(=O)O` [g816] gave a pEC50 (Human GLP1R) of 10.50, a pEC50 (Human GlucR) of 11.96 and a pEC50 (Human GIPr) of 7.70.
